# Measurements: patent US11247990B1, “Bicyclic fused pyridine compounds as inhibitors of TAM kinases” (ARRAY BIOPHARMA INC., priority 2017, dated 2022)
# Target: GST-tagged recombinant human TYRO3 kinase domain (Homo sapiens (Human), UniProt Q06418)
# Assay: TYRO3 Enzyme Assay (LanthaScreen Eu Kinase Binding, TR-FRET)
# Details: averaged IC50
# Description: Compounds of Formula I were screened for their ability to inhibit TYRO3 kinase using Invitrogen's LanthaScreen™ Eu Kinase Binding technology. […] After a 60-minute incubation at 22° C., the reaction was measured using a PerkinElmer EnVision multimode plate reader via TR-FRET dual wavelength detection, and the percent of control (POC) calculated using a ratiometric emission factor. […] The POC values were fit to a 4 parameter logistic curve and the IC50 value is point where the curve crosses 50 POC.
# GST-tagged recombinant human TYRO3 kinase domain, sequence (Q06418 518-790): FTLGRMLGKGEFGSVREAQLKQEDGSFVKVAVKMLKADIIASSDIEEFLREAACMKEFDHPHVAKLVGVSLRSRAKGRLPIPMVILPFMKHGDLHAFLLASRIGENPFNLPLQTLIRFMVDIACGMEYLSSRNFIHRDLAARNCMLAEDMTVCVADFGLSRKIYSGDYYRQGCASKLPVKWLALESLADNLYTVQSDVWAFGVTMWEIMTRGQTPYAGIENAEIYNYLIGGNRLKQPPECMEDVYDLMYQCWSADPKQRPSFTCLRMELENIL
row,SMILES,IC50 [nM]
1,"CNc1cc2c(cn1)c(-c1cnc(N3CCOCC3)nc1)nn2[C@H]1CC[C@@H](Oc2ccc(=O)n(C)n2)CC1 [Example 51, 2-methyl-6-(((1s,4s)-4-(6-(methylamino)-3-(2-morpholinopyrimidin-5-yl)-1H-pyrazolo[4,3-c]pyridin-1-yl)cyclohexyl)oxy)pyridazin-3(2H)-one]",1000 to 10000
2,"CNc1cc2c(cn1)c(-c1cncc(C(F)(F)F)c1)nn2[C@H]1CC[C@@H](Oc2ccc(=O)n(C)n2)CC1 [Example 52, 2-methyl-6-(((1s,4s)-4-(6-(methylamino)-3-(5-(trifluoromethyl)pyridin-3-yl)-1H-pyrazolo[4,3-c]pyridin-1-yl)cyclohexyl)oxy)pyridazin-3(2H)-one]",1000 to 10000
3,"CCNc1cc2c(cn1)c(-c1cnn(C(C)(C)C#N)c1)nn2[C@H]1CC[C@@H](Oc2ccc(=O)n(CC)n2)CC1 [Example 57, 2-(4-(1-((1s,4s)-4-((1-ethyl-6-oxo-1,6-dihydropyridazin-3-yl)oxy)cyclohexyl)-6-(ethylamino)-1H-pyrazolo[4,3-c]pyridin-3-yl)-1H-pyrazol-1-yl)-2-methylpropanenitrile]",1000 to 10000
4,"CCNc1cc2c(cn1)c(-c1ccc(CN3CC(F)C3)cc1)nn2[C@H]1CC[C@@H](Oc2ccc(=O)n(C)n2)CC1 [Example 62, 6-(((1s,4s)-4-(6-(ethylamino)-3-(4-((3-fluoroazetidin-1-yl)methyl)phenyl)-1H-pyrazolo[4,3-c]pyridin-1-yl)cyclohexyl)oxy)-2-methylpyridazin-3(2H)-one]",1000 to 10000
5,Cn1cc(-c2nn([C@H]3CC[C@@H](Oc4ccc(=O)n(C)n4)CC3)c3cc(Nc4cccc(F)c4)ncc23)cn1 [Example 66],< 10
6,"CNc1cc2c(cn1)c(-c1ccn(C)n1)cn2[C@H]1CC[C@@H](Oc2ccc(=O)n(C)n2)CC1 [Example 74, 2-methyl-6-(((1s,4s)-4-(3-(1-methyl-1H-pyrazol-3-yl)-6-(methylamino)-1H-pyrrolo[3,2-c]pyridin-1-yl)cyclohexyl)oxy)pyridazin-3(2H)-one]",1000 to 10000
7,"CNc1cc2c(cn1)c(-c1cnn(C)c1)nn2[C@H]1CC[C@@H](Oc2cc(=O)cnn2C)CC1 [Example 114, 1-methyl-6-(((1s,4s)-4-(3-(1-methyl-1H-pyrazol-4-yl)-6-(methylamino)-1H-pyrazolo[4,3-c]pyridin-1-yl)cyclohexyl)oxy)pyridazin-4(1H)-one]",1000 to 10000
8,"CNc1cc2c(cn1)c(-c1ccc(F)cc1)nn2[C@H]1CC[C@@H](Oc2ccccn2)CC1 [Example 118, 3-(4-fluorophenyl)-N-methyl-1-((1s,4s)-4-(pyridin-2-yloxy)cyclohexyl)-1H-pyrazolo[4,3-c]pyridin-6-amine]",1000 to 10000
9,"CNc1cc2c(cn1)c(-c1cnn(C)c1)nn2[C@H]1CC[C@H](Oc2cccnn2)CC1 [Example 119, N-methyl-3-(1-methyl-1H-pyrazol-4-yl)-1-((1r,4r)-4-(pyridazin-3-yloxy)cyclohexyl)-1H-pyrazolo[4,3-c]pyridin-6-amine]",1000 to 10000
10,"CNc1cc2c(cn1)c(-c1cnn(C)c1)nn2[C@H]1CC[C@@H](Oc2cccnn2)CC1 [Example 120, N-methyl-3-(1-methyl-1H-pyrazol-4-yl)-1-((1s,4s)-4-(pyridazin-3-yloxy)cyclohexyl)-1H-pyrazolo[4,3-c]pyridin-6-amine]",1000 to 10000
11,"CNc1cc2c(cn1)c(-c1cnn(C)c1)nn2[C@H]1CC[C@H](Oc2ccnc(C)c2)CC1 [Example 121, N-methyl-3-(1-methyl-1H-pyrazol-4-yl)-1-((1r,4r)-4-((2-methylpyridin-4-yl)oxy)cyclohexyl)-1H-pyrazolo[4,3-c]pyridin-6-amine]",1000 to 10000
12,"CNc1cc2c(cn1)c(-c1cnn(C)c1)nn2[C@H]1CC[C@@H](Oc2ccc(OC)nn2)CC1 [Example 123, 1-((1s,4s)-4-((6-methoxypyridazin-3-yl)oxy)cyclohexyl)-N-methyl-3-(1-methyl-1H-pyrazol-4-yl)-1H-pyrazolo[4,3-c]pyridin-6-amine]",1000 to 10000
13,"CNc1cc2c(cn1)c(-c1cnn(C)c1)nn2[C@H]1CC[C@@H](Oc2nccc(C)n2)CC1 [Example 126, N-methyl-3-(1-methyl-1H-pyrazol-4-yl)-1-((1s,4s)-4-((4-methylpyrimidin-2-yl)oxy)cyclohexyl)-1H-pyrazolo[4,3-c]pyridin-6-amine]",1000 to 10000
14,"CNc1cc2c(cn1)c(-c1cnn(C)c1)nn2[C@H]1CC[C@@H](Oc2ccc(C#N)cn2)CC1 [Example 127, 6-(((1s,4s)-4-(3-(1-methyl-1H-pyrazol-4-yl)-6-(methylamino)-1H-pyrazolo[4,3-c]pyridin-1-yl)cyclohexyl)oxy)nicotinonitrile]",1000 to 10000
15,"CNc1cc2c(cn1)c(-c1cnn(C)c1)nn2[C@H]1CC[C@@H](Oc2ccc(OC)nc2)CC1 [Example 130, 1-((1s,4s)-4-((6-methoxypyridin-3-yl)oxy)cyclohexyl)-N-methyl-3-(1-methyl-1H-pyrazol-4-yl)-1H-pyrazolo[4,3-c]pyridin-6-amine]",1000 to 10000
16,"CNc1cc2c(cn1)c(-c1cnn(C)c1)nn2[C@H]1CC[C@@H](Oc2ccc(OCc3ccccc3)nc2)CC1 [Example 131, 1-((1s,4s)-4-((6-(benzyloxy)pyridin-3-yl)oxy)cyclohexyl)-N-methyl-3-(1-methyl-1H-pyrazol-4-yl)-1H-pyrazolo[4,3-c]pyrdin-6-amine]",1000 to 10000
17,"CNc1cc2c(cn1)c(-c1cnn(C)c1)nn2[C@H]1CC[C@@H](Oc2cncnc2)CC1 [Example 141, N-methyl-3-(1-methyl-1H-pyrazol-4-yl)-1-((1s,4s)-4-(pyrimidin-5-yloxy)cyclohexyl)-1H-pyrazolo[4,3-c]pyridin-6-amine]",1000 to 10000
18,"CNc1cc2c(cn1)c(-c1cnn(C)c1)nn2C1CCC(Oc2cc(N(C)C)cnn2)CC1 (stereo not drawn) [Example 154, 1-((1s,4s)-4-((5-(dimethylamino)pyridazin-3-yl)oxy)cyclohexyl)-N-methyl-3-(1-methyl-1H-pyrazol-4-yl)-1H-pyrazolo[4,3-c]pyridin-6-amine]",1000 to 10000
19,"CNc1cc2c(cn1)c(-c1cnn(C)c1)nn2[C@H]1CC[C@@H](Oc2cccc(C(F)(F)F)n2)CC1 [Example 174, N-methyl-3-(1-methyl-1H-pyrazol-4-yl)-1-((1s,4s)-4-((6-(trifluoromethyl)pyridin-2-yl)oxy)cyclohexyl)-1H-pyrazolo[4,3-c]pyridin-6-amine]",1000 to 10000
20,"CNc1cc2c(cn1)c(-c1cnn(C)c1)nn2[C@H]1CC[C@@H](Oc2nc(C)ncc2OC)CC1 [Example 176, 1-((1s,4s)-4-((5-methoxy-2-methylpyrimidin-4-yl)oxy)cyclohexyl)-N-methyl-3-(1-methyl-1H-pyrazol-4-yl)-1H-pyrazolo[4,3-c]pyridin-6-amine]",1000 to 10000
21,"CCNc1cc2c(cn1)c(-c1cnn(C)c1)nn2[C@H]1CC[C@@H](Oc2cnn(C)c2C)CC1 [Example 226, 1-((1s,4s)-4-((1,5-dimethyl-1H-pyrazol-4-yl)oxy)cyclohexyl)-N-ethyl-3-(1-methyl-1H-pyrazol-4-yl)-1H-pyrazolo[4,3-c]pyridin-6-amine]",1000 to 10000
22,"CNC(=O)c1ncccc1O[C@H]1CC[C@@H](n2nc(-c3cnn(C)c3)c3cnc(NC)cc32)CC1 [Example 276, N-methyl-3-(((1s,4s)-4-(3-(1-methyl-1H-pyrazol-4-yl)-6-(methylamino)-1H-pyrazolo[4,3-c]pyridin-1-yl)cyclohexyl)oxy)picolinamide]",1000 to 10000
23,"CNc1cc2c(cn1)c(-c1cnn(C)c1)nn2[C@H]1CC[C@@H](Oc2cccnc2C(=O)N(C)C)CC1 [Example 277, N,N-dimethyl-3-(((1s,4s)-4-(3-(1-methyl-1H-pyrazol-4-yl)-6-(methylamino)-1H-pyrazolo[4,3-c]pyridin-1-yl)cyclohexyl)oxy)picolinamide]",1000 to 10000
24,"CNc1cc2c(cn1)c(-c1cnn(C)c1)nn2[C@H]1CC[C@@H](Oc2cccc(OCC(F)(F)F)n2)CC1 [Example 302, N-methyl-3-(1-methyl-1H-pyrazol-4-yl)-1-((1s,4s)-4-((6-(2,2,2-trifluoroethoxy)pyridin-2-yl)oxy)cyclohexyl)-1H-pyrazolo[4,3-c]pyridin-6-amine]",1000 to 10000
25,"Cn1cc(-c2nn([C@H]3CC[C@@H](Oc4cn(C)nc4C(F)(F)F)CC3)c3cc(Nc4ccccc4)ncc23)cn1 [Example 303, 3-(1-methyl-1H-pyrazol-4-yl)-1-((1s,4s)-4-((1-methyl-3-(trifluoromethyl)-1H-pyrazol-4-yl)oxy)cyclohexyl)-N-phenyl-1H-pyrazolo[4,3-c]pyridin-6-amine]",< 10
26,"Cn1cc(-c2nn([C@H]3CC[C@@H](Oc4cccnc4C(F)(F)F)CC3)c3cc(Nc4ccccc4)ncc23)cn1 [Example 304, 3-(1-methyl-1H-pyrazol-4-yl)-N-phenyl-1-((1s,4s)-4-((2-(trifluoromethyl)pyridin-3-yl)oxy)cyclohexyl)-1H-pyrazolo[4,3-c]pyridin-6-]",< 10
27,"CCNc1cc2c(cn1)c(C1CCCC1)nn2[C@H]1CC[C@@H](Oc2nccc(C(F)(F)F)c2F)CC1 [Example 321, 3-cyclopentyl-N-ethyl-1-((1s,4s)-4-((3-fluoro-4-(trifluoromethyl)pyridin-2-l)oxy)cyclohexyl)-1H-pyrazolo[4,3-c]pyridin-6-amine]",1000 to 10000
28,"CCNc1cc2c(cn1)c(C1CCCCC1)nn2[C@H]1CC[C@@H](Oc2nccc(C(F)(F)F)c2F)CC1 [Example 322, 3-cyclohexyl-N-ethyl-1-((1s,4s)-4-((3-fluoro-4-(trifluoromethyl)pyridin-2-yl)oxy)cyclohexyl)-1H-pyrazolo[4,3-c]pyridin-6-amine]",1000 to 10000
29,"CCCNc1cc2c(cn1)c(-c1cnn(C)c1)nn2[C@H]1CC[C@@H](Oc2ccccc2F)CC1 [Example 405, 1-((1s,4s)-4-(2-fluorophenoxy)cyclohexyl)-3-(1-methyl-1H-pyrazol-4-yl)-N-propyl-1H-pyrazolo[4,3-c]pyridin-6-amine]",< 10
30,CNc1cc2c(cn1)c(-c1cnn(C)c1)nn2[C@H]1CC[C@@H](Oc2cccc(C(=O)N(C)C)c2)CC1 [Example 454],1000 to 10000
